In one test the test system is H3R. The experiment in a line: H3R agonism check with thioperamide on electrically stimulated guinea pig ileum. The following applies: thioperamide as H3R antagonist. On the procedure:
A standard ex vivo assay based on the relaxant response of histamine H3R agonists to electrically driven guinea pig ileum was used to test the influence of ADS compounds on the reduction of electrically evoked tissue contraction. […] The −log EC50 value for RAMH and ADS compounds were evaluated. […] Following this, we decided to evaluate the ADS series as potential M2R/M3R ligands on the isolated guinea pig ileum.
Male guinea pigs, weighing 300–400 g, were euthanized by a blow to the neck. A 20–30 cm length of the distal ileum, apart from the terminal 5 cm, was rapidly removed and placed in phosphate buffer at room temperature (pH 7.4) containing (mM) NaCl (136.9), KCl (2.6), KH2PO4 (1.47), Na2HPO4 (9.58), and indomethacin (1 × 10^–6 mol/L)). The intraluminal content was rinsed, and the isolated intestine was cut into 1.5–2 cm segments. The preparations were mounted between two platinum electrodes isotonically in a 20 mL organ bath filled with Krebs buffer: composition (mM) NaCl (118), KCl (5.6), MgSO4 (1.18), CaCl2 (2.5), NaH2PO4·H2O (1.28), NaHCO3 (25), glucose (5.55), and indomethacin (3 × 10^–7 mol/L). […] Cumulative concentration–response curve was determined to RAMH or tested agonist (10 nM to 10 mM) at increasing concentrations spaced by 3- or 3.3-fold. The agonist potency is expressed as pD2 value (−log EC50) ± sem.

Another test deals with T1, hH3R (Homo sapiens, UniProt Q9Y5N1).
T1 construct: expressed in transfected cells; membrane fractions
T1 sequence (Q9Y5N1 whole entry): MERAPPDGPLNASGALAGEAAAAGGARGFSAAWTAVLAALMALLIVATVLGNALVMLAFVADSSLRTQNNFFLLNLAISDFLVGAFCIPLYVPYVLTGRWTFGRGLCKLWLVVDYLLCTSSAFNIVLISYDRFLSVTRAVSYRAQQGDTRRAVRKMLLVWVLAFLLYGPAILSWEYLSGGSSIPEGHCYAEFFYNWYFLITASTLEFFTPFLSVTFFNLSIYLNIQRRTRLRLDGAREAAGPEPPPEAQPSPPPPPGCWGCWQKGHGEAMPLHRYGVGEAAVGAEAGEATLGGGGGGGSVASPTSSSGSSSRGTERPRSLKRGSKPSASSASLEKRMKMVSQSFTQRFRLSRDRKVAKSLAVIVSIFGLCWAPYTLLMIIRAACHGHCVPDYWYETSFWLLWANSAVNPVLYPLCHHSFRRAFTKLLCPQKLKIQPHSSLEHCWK
The experiment in a line: hH3R radioligand displacement binding assay ([3H]-Nα-methylhistamine, HEK-293 cell membranes). To be noted: [3H]-Nα-methylhistamine; HEK-293 membranes; read-out: hH3R -log(Ki) ± sem (converted). As for the experimental part:
[^3H]-N^α-Methylhistamine was used as a radiolabeled ligand.
The radioligand displacement binding assay was performed in membrane fractions of HEK-293 cells stably expressing hH3R. Cell cultivation and membrane preparation were performed according to Kottke et al.[43] […] The total assay volume was set to 200 μL. The compounds were tested in several appropriate concentrations between 100 μM and 0.1 nM. Pipetting was partly done by Freedom Evo (Tecan). […] The membrane fraction (20 μg/well), test compounds, and radiolabeled ligand were incubated for 90 min at 25 °C while shaking. The bound radioligand was separated from free radioligand by filtration through GF/B filters pretreated with 0.3% (m/v) polyethylenimine using a cell harvester. Radioactivity was determined by liquid scintillation counting using a MicroBeta Trilux (PerkinElmer). The data were obtained in duplicates in at least three independent experiments. Nonspecific binding was subtracted from the raw data to calculate specific-binding values. The evaluation was performed with GraphPad Prism 6.1 (San Diego, CA, USA) using nonlinear regression (one-site competition with a logarithmic scale). The Ki values were calculated from the IC50 values using the Cheng–Prusoff equation.[44] The statistical calculations were performed on −log Ki. The mean values and 95% confidence intervals were transformed to nanomolar concentrations.
Background: Loss of bound radioactivity is the signal in a displacement assay; it reports binding, not function.

The next test addresses T2, M3R (Homo sapiens, UniProt P20309).
T2 construct: host or cells: CHO cells (whole cells, Fura-2)
Briefly: Intracellular Ca2+ measurement, functional response to ACh, M3R in CHO cells. To be noted: antagonism of ACh-induced Ca2+ response, read-out: pKB M3R (converted). It is filed as cell-based. As for the experimental part: (§1) Linear Schild plot indicates the competitive interaction (slope = 1) of the tested compound (Supporting Information, Figure S55).
(§2) Intracellular Ca^2+ level was taken as a functional response to ACh. Black 96-well plates were seeded with 12,000 CHO cells per well. After two days of cultivation in DMEM at 37 °C under a humidified atmosphere containing 5% CO2, cells were washed with Krebs-HEPES buffer (KHB) (composition: (mM) NaCl (138), KCl (4), CaCl2 (1.3), MgCl2 (1), NaH2PO4 (1.2), HEPES (20), glucose (10), pH adjusted to 7.4) KHB was loaded with 5 μM Fura-2 (Sigma-Aldrich) for 1 h. The cells were washed with fresh KHB and preincubated with tested compounds for 1 h. Then plates were placed in a Cytation 3 reader. The first basal level (fluorescence dual excitation at 340 and 380 nm, emission at 510 nm) was measured. Following this, ACh was added to the desired concentration (ranging from 10 pM to 100 μM) by instrument injectors, and fluorescence was measured immediately. Intracellular Ca^2+ level was calculated as a ratio of 340 to 380 nm excitation fluorescence. […]
(§3) The intracellular level of calcium at various concentrations of ACh was measured. […] From a series of EC50 values of apparent inhibition constant KB was calculated by fitting eq 5 to dose ratio (DR) induced by tested compound at a given concentration: [drawing 5] […]

A further test addresses T3, muscarinic M2R (Homo sapiens, UniProt P08172).
T3 construct: host or cells: CHO cells (whole cells, Fura-2)
T3 sequence (P08172 1-466): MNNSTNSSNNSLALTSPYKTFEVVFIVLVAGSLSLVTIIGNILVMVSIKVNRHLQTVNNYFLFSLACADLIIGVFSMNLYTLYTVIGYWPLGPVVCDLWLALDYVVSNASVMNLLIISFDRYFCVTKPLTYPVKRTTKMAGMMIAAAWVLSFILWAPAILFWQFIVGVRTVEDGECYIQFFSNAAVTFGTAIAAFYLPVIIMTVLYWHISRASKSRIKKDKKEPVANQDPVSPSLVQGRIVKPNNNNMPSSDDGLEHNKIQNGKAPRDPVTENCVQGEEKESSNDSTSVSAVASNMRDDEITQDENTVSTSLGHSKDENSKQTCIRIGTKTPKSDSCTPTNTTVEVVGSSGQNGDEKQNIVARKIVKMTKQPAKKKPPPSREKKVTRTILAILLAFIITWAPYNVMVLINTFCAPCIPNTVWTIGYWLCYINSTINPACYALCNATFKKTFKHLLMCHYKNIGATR
The experiment in a line: Intracellular Ca2+ measurement, functional response to ACh, M2R in CHO cells. In kind it is cell-based. On the procedure:
as §1, §2, §3

T2 sequence (P20309 whole entry): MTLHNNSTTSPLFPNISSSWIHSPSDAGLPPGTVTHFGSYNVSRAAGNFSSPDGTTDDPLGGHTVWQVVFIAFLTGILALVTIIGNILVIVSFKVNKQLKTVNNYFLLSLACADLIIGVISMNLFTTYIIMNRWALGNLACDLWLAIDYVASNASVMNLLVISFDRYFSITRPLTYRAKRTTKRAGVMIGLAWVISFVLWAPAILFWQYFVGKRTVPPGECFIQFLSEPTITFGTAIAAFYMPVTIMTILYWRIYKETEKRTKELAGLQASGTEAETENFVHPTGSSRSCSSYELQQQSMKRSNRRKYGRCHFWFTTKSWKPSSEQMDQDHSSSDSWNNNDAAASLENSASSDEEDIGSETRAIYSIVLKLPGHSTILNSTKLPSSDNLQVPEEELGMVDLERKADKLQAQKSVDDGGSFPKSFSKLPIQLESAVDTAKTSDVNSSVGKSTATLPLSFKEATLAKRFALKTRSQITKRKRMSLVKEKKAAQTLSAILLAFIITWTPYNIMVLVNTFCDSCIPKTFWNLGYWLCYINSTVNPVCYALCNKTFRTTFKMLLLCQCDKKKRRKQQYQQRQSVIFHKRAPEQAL

On to `N=C(N)N(CCCCN1CCN(C[C@H]2CC[C@@H](COc3ccccc3)CC2)CC1)Cc1ccccc1` [ADS10227, 1-{4-{4-{[4-(phenoxymethyl)cyclohexyl]methyl}piperazin-1-yl}but-1-yl}-1-(benzyl)guanidine], for which the “shift of the concentration–response curve with or without thioperamide (H3R agonism)” value with H3R is given as “no shifts”. Moreover, the Ki at hH3R is 5890 nM. Further, the Kb on M3R was 37.2 nM; on muscarinic M2R (antagonism of ACh-induced Ca2+ response, CHO cells, read-out: pKB M2R (converted)), 6.76 nM. Moreover, the Schild plot slope on muscarinic M2R (linear Schild plot, competitive interaction, M2R and M3R Ca2+ assays) is recorded as 1.

As for `[H]/N=C(/N)N(CCCCN1CCN(CC2CCC(COc3ccccc3)CC2)CC1)Cc1ccc(C(F)(F)F)cc1` (stereo not drawn) [ADS10239], at hH3R, the Ki was 2340 nM.

For orientation: Ki means a dissociation constant, usually derived from enzyme kinetics or from competition with a known ligand.
